Assay results from publication PMC6112376, “Comprehensive Analyses and Prioritization of Tox21 10K Chemicals Affecting Mitochondrial Function by in-Depth Mechanistic Studies” (Environmental Health Perspectives, 2018).
Where two headings read alike, the source gives them in different places.

Experiments:
rat primary hepatocytes = assay: MMP assay in rat primary hepatocytes; settings: for IC50: read-out: MMP assays IC50 (µM) Rat Hepatocytes
HepG2 cells [1] = settings: cited from earlier work
HepG2 cells [2] = settings: for IC50: read-out: MMP assays IC50 (µM) HepG2
[3] = rat hepatocytes, mean ± SD of three experiments
[4] = HepG2 cells, single number from one experiment
[5] = read-out: MMP assays IC50 (µM) qHTS-HepG2
[6] = read-out: MMP assays IC50 (µM), qHTS-HepG2

| Structure (SMILES) | MMP assays IC50 (µM) Rat Hepatocytes (rat primary hepatocytes; [3]) | MMP assays efficacy (%) Rat Hepatocytes (rat primary hepatocytes; [3]) | MMP assays IC50 (µM) qHTS-HepG2 (HepG2 cells [1]) | MMP assays efficacy (%) qHTS-HepG2 (HepG2 cells [1]) | MMP assays IC50 (µM) HepG2 (HepG2 cells [2]; [4]) | MMP assays efficacy (%) HepG2 (HepG2 cells [2]; [4]) | IC50 (HepG2 cells [1]; [5]) | IC50 (rat primary hepatocytes; [3]) | IC50 (HepG2 cells [2]; [4]) | IC50 (rat primary hepatocytes; Rattus norvegicus, Hepatocyte) | MMP assays IC50 (µM) HepG2 (HepG2 cells [2]) | MMP assays efficacy (%) HepG2 (HepG2 cells [2]) | IC50 (HepG2 cells [1]; [6]) |
| --- | --- | --- | --- | --- | --- | --- | --- | --- | --- | --- | --- | --- | --- |
| CC(C)c1ccccc1O [Compound 2-Isopropylphenol] | inactive | inactive | inactive | inactive | inactive | inactive | – | – | – | – | – | – | – |
| Cc1nc2ccccc2s1 [Compound 2-Methylbenzothiazole] | inactive | inactive | inactive | inactive | inactive | inactive | – | – | – | – | – | – | – |
| CCCCCc1ccco1 [Compound 2-Pentylfuran] | inactive | inactive | – | -76±20% | inactive | inactive | 42.2 ± 2.81 µM | – | – | – | – | – | – |
| CC(=O)c1ccc2ccc3ccccc3c2c1 [Compound 3-Acetylphenanthrene] | – | -44±5% | – | -105±10% | – | -105% | 36.9 ± 13.7 µM | 42.2 ± 19.8 µM | 56.2 µM | – | – | – | – |
| O=C(c1ccccc1)c1cccc(O)c1 [Compound 3-Hydroxybenzophenone] | inactive | inactive | – | -87±9% | – | -86% | 27.7 µM | – | 39.8 µM | – | – | – | – |
| Oc1ccc(Cl)cc1C1CCCC1 [Compound 4-Chloro-2-cyclopentylphenol] | – | -85±8% | – | -99±4% | – | -99% | 5.66 ± 1.93 µM | 33.6 ± 29.7 µM | 6.31 µM | – | – | – | – |
| CCc1ccc(O)cc1 [Compound 4-Ethylphenol] | inactive | inactive | inactive | inactive | inactive | inactive | – | – | – | – | – | – | – |
| C(=Cc1ccncc1)c1ccccc1 [Compound 4-Styrylpyridine] | inactive | inactive | – | -65±10% | inactive | inactive | 11.2 ± 5.54 µM | – | – | – | – | – | – |
| O=Cc1c2ccccc2c(Cl)c2ccccc12 [Compound 10-Chloro-9-anthraldehyde] | – | -47±21% | – | -82±26% | inactive | inactive | 13.9 ± 7.82 µM | 24.3 ± 28.8 µM | – | – | – | – | – |
| OC1CCCCCCCCCCC1 [Cyclododecanol] | inactive | inactive | – | -66±13% | inactive | inactive | 48.8 ± 3.84 µM | – | – | – | – | – | – |
| O=C1c2ccccc2C(=O)C1c1ccc2ccccc2n1 [D&C Yellow 11] | inactive | inactive | – | -76±6% | – | -75% | 0.38 ± 0.13 µM | – | 0.44 µM | – | – | – | – |
| C[C@@H]1C[C@H]2[C@@H]3CCC4=CC(=O)C=C[C@]4(C)[C@@]3(F)[C@@H](O)C[C@]2(C)[C@@]1(O)C(=O)COC(=O)c1cccc(S(=O)(=O)[O-])c1.[Na+] [Dexamethazone metasulfobenzoate sodium] | inactive | inactive | inactive | inactive | inactive | inactive | – | – | – | – | – | – | – |
| CC(=O)OCC(=O)[C@@]1(OC(C)=O)[C@@H](C)C[C@H]2[C@@H]3C[C@H](F)C4=CC(=O)C=C[C@]4(C)[C@@]3(F)[C@@H](O)C[C@@]21C [Diflorasone diacetate] | inactive | inactive | – | -50±7% | inactive | inactive | 28.7 ± 1.87 µM | – | – | – | – | – | – |
| CC(C)[C@@H](C)/C=C/[C@@H](C)[C@H]1CC[C@H]2/C(=C/C=C3\C[C@@H](O)CC[C@@H]3C)CCC[C@]12C [Dihydrotachysterol] | inactive | inactive | – | -78±16% | inactive | inactive | 32.7 ± 1.32 µM | – | – | – | – | – | – |
| CC(=O)OCCN(CCOC(C)=O)c1ccc(N=Nc2ccc([N+](=O)[O-])cc2C#N)cc1 [Disperse Red 82] | – | -59±9% | – | -87±5% | – | -71% | 8 ± 1.45 µM | 11.7 ± 8.76 µM | 6.31 µM | – | – | – | – |
| CC(=O)O[C@@]12CO[C@@H]1C[C@H](O)[C@@]1(C)C(=O)[C@H](O)C3=C(C)[C@@H](OC(=O)[C@H](O)[C@@H](NC(=O)OC(C)(C)C)c4ccccc4)C[C@@](O)([C@@H](OC(=O)c4ccccc4)[C@H]21)C3(C)C [Docetaxel] | – | – | – | -57±17% | – | – | 15 ± 29.8 µM | – | – | 12.1 ± 4.78 µM | inactive | inactive | – |
| CCCCCCCCCCCCOC(=O)c1ccc(O)cc1 [Dodecylparaben] | inactive | inactive | – | -107±9% | – | -106% | 4.19 ± 1.07 µM | – | 7.94 µM | – | – | – | – |
| CO[C@H]1C[C@H](O[C@H]2[C@H](C)O[C@@H](O[C@@H]3/C(C)=C/C[C@@H]4C[C@@H](C[C@]5(C=C[C@H](C)[C@@H](C6CCCCC6)O5)O4)OC(=O)[C@@H]4C=C(C)[C@@H](O)[C@H]5OC/C(=C\C=C\[C@@H]3C)[C@]54O)C[C@@H]2OC)O[C@@H](C)[C@@H]1O [Doramectin] | inactive | inactive | – | -80±13% | – | -117% | 11.9 µM | – | 17.3 µM | – | – | – | – |
| CC(O)C(=O)O.CCOc1ccc2nc3cc(N)ccc3c(N)c2c1.O [Ethacridine lactate hydrate] | – | -98±24% | – | -103±8% | – | – | 3.22 ± 0.55 µM | 10.2 ± 5.58 µM | 5.48 µM | – | – | – | – |
| CC/C=C\C/C=C\C/C=C\CCCCCCCC(=O)OCC [Ethyl linolenate] | inactive | inactive | – | -51±21% | inactive | inactive | 49.6 ± 36 µM | – | – | – | – | – | – |
| CCCCCCOc1ccccc1C(N)=O [Exalamide] | – | -59±17% | – | -73±11% | inactive | inactive | 9.81 ± 3 µM | – | – | 29.2 ± 2.37 µM | – | – | – |
| CN1CC(=O)NC1=NC(=O)Nc1cccc(Cl)c1 [Fenobam; McN-3377] | inactive | inactive | – | -70±17% | inactive | inactive | 25.9 ± 1.87 µM | – | – | – | – | – | – |
| CN(C)C(=O)Nc1ccccc1 [Fenuron] | inactive | inactive | inactive | inactive | inactive | inactive | – | – | – | – | – | – | – |
| CCC(=O)O[C@]1(C(=O)SCF)[C@H](C)C[C@H]2[C@@H]3C[C@H](F)C4=CC(=O)C=C[C@]4(C)[C@@]3(F)[C@@H](O)C[C@@]21C [Fluticasone propionate] | inactive | inactive | – | -58±17% | inactive | inactive | – | – | – | – | – | – | 9.02 ± 1.71 µM |
| c1ccc2c(c1)OCC(C1=NCCN1)O2 (centres unmarked) [Idazoxan] | inactive | inactive | – | -60±9% | inactive | inactive | – | – | – | – | – | – | 20.6 ± 7.46 µM |
| O=C(O)C(=O)Cc1c[nH]c2ccccc12 [Indole-3-pyruvic acid] | – | -72±42% | – | -85±21% | – | -89% | – | 21.3 ± 17.9 µM | 11.2 µM | – | – | – | 28.9 ± 16.7 µM |
| CC(C)COC(=O)c1ccc(O)cc1 [Isobutylparaben] | inactive | inactive | – | -91±6% | – | -129% | – | – | 14.1 µM | – | – | – | 14.2 ± 1.82 µM |
| CCCCCCCC[N+](C)(CCCCCCCC)CCCCCCCC.O=S(=O)([O-])C(F)(F)F [Methyltrioctylammonium trifluoromethanesulfonate] | – | -73±33% | – | -86±9% | – | -105% | – | 11.4 ± 2.12 µM | 2.24 µM | – | – | – | 2.16 ± 0.72 µM |
| CC(C)(O)c1ccccc1CC[C@@H](SCC1(CC(=O)O)CC1)c1cccc(/C=C/c2ccc3ccc(Cl)cc3n2)c1 [Montelukast sodium] | – | – | – | -72±20% | – | – | – | – | – | 24.1 ± 9.54 µM | inactive | inactive | – |
